Holding throughout (format): functional
The species named for experiment [1] is Mus musculus. Briefly: Toxicity toward P-815 Mastocytoma cells after 5 hr was determined as percent of [51Cr]- release from labeled cells as a measure of cell death. at a concentration of 0.282 mM. (expt IV).
The species entered for experiment [2] is Mus musculus. As to the kind of experiment: Cytotoxicity was determined for the compound against mouse peritoneal macrophages (MPM) at a concentration of 0.541 mM.
The species named for experiment [3] is Mus musculus. Briefly: Cytotoxicity was determined against mouse peritoneal macrophages (MPM) and the percent of LDH released after 24 hr was determined as a measure of cell death at a concentration of 0.375 mM (expt I).
Experiment [4] is filed under the species Mus musculus. As to the kind of experiment: Toxicity was evaluated for the compound at a concentration of 0.257 mM against […] Mastocytoma.
The species entered for experiment [5] is Mus musculus. Briefly: Cytotoxicity was determined for the compound against mouse peritoneal macrophages (MPM) at a concentration of 0.514 mM.
Experiment [6] is filed under the species Mus musculus. As to the kind of experiment: Toxicity toward P-815 Mastocytoma cells after 5 hr was determined as percent of [51Cr]- release from labeled cells as a measure of cell death. at a concentration of 0.257 mM. (expt III).
The species named for experiment [7] is Mus musculus. Briefly: Cytotoxicity was determined against mouse peritoneal macrophages (MPM) and the percent of LDH released after 24 hr was determined as a measure of cell death at a concentration of 0.375 mM (expt II).
The species entered for experiment [8] is Mus musculus. As to the kind of experiment: Toxicity toward P-815 Mastocytoma cells after 5 hr was determined as percent of [51Cr]- release from labeled cells as a measure of cell death. at a concentration of 0.281 mM. (expt IV).
Experiment [9] is filed under the species Mus musculus. Briefly: Cytotoxicity was determined against mouse peritoneal macrophages (MPM) and the percent of LDH released after 24 hr was determined as a measure of cell death at a concentration of 0.561 mM (expt II). Background: LDH leaks from cells whose membrane has failed.

Here are results for three compounds from ChEMBL document CHEMBL1122054, “Lysosomotropic agents. 4. Carbobenzoxyglycylphenylalanyl, a new protease-sensitive masking group for introduction into cells” (J Med Chem, 1982).

Where a SMILES comes first, the peptide text is derived from it. [ ]: non-standard residue; d: D form. The star is where a group is joined. Cbz = O=C(OCc1ccccc1)*

Turning to `NC(=O)[C@@H](Cc1ccccc1)NC(=O)CNC(=O)OCc1ccccc1`, the Cr release in the experiment filed under Mus musculus [1] is listed as 17%.

`CCCCCCCCCCCCNC(=O)[C@@H](Cc1ccccc1)NC(=O)CN`: the Toxicity in the experiment listed under Mus musculus [2] turned out to be 210 µg/mL; in the experiment listed under Mus musculus [4] it was 100 µg/mL; in the experiment filed under Mus musculus [5], 200 µg/mL. The results for the LDH release in the experiment listed under Mus musculus [3] and in the experiment listed under Mus musculus [7] were 85% and 78%, respectively. The Cr release in the experiment listed under Mus musculus [6] amounted to 95%.

On to `O=C(CNC(=O)OCc1ccccc1)N[C@H](Cc1ccccc1)C(=O)O` (Cbz-Gly-[dF]-OH), for which the Cr release in the experiment filed under Mus musculus [8] was found to be 16%. Besides, the LDH release in the experiment listed under Mus musculus [9] is on record as 17%.
